Measured values reported in patent US5064953A, “Intermediates cephalosporin derivatives” (Mochida Pharmaceutical Co., Ltd., priority 1983, dated 1991).
Values after ≈ are worked out from the molar mass of the structure shown.

Legend:
Escherichia coli 67 [1] = assay: Antibacterial activity in vitro, agar plate dilution method (MIC); type: cell-based; details: 10^6 cells/ml, Mueller Hinton agar, 37° C., 20 hours
Method: (§1) Antibacterial activity in vitro was determined in accordance with the agar plate dilution method. A platinum loop each of test bacteria (10^6 cells/ml), cultured in Mueller Hinton broth, was inoculated on Mueller Hinton agar plates which contained test compounds at various concentrations. After cultivating at 37° C. for 20 hours, the minimum inhibitory concentration (MIC μg/ml) was determined.

[2] = test system: Klebsiella pneumoniae IF03317; assay: as above; type: cell-based; details: 10^6 cells/ml, Mueller Hinton agar, 37° C., 20 hours
Method: as §1

Proteus morganii IF03848 = assay: as above; type: cell-based; details: Morganella morganii, 10^6 cells/ml, Mueller Hinton agar, 37° C., 20 hours
Method: as §1

[3] = test system: Pseudomonas aeruginosa IF03445; assay: as above; type: cell-based; details: 10^6 cells/ml, Mueller Hinton agar, 37° C., 20 hours
Method: as §1

[4] = test system: Serratia marcescens IF03759; assay: as above; type: cell-based; details: 10^6 cells/ml, Mueller Hinton agar, 37° C., 20 hours
Method: as §1

[5] = test system: Staphylococcus aureus Smith; assay: as above; type: cell-based; details: 10^6 cells/ml, Mueller Hinton agar, 37° C., 20 hours
Method: as §1

[6] = test system: Klebsiella pneumoniae IF03317; assay: Protection ability against systemic infection; type: in vivo; details: IF03317, iv, 168 h, ICR mice, intraperitoneal infection, compound intravenously 1 hour after infection, survival at 1 week
Method: (§2) Protection ability against systemic infection was determined as follows. An aqueous suspension of test bacteria was intraperitoneally injected into groups of 10 four week old ICR mice. One hour after the infection, test compounds were intravenously administered. The number of surviving mice was counted 1 week after injection to determine the dose at which 50% of the test animals were alive (ED50 :mg/kg).

[7] = test system: Staphylococcus 242 (Methicillin-resistant strain); assay: Protection ability against systemic infection; type: in vivo; details: iv, 168 h, ICR mice, intraperitoneal infection, compound intravenously 1 hour after infection, survival at 1 week
Method: as §2
*Methicillin-resistant strain

[8] = LD50 determined in accordance with the Probit method; details: in vivo, iv
Method: Next, LD50 of representative examples of the compounds of the present invention is shown in Table 3 wherein LD50 was determined in accordance with the Probit method.

Escherichia coli 67 [9] = assay: Protection ability against systemic infection; type: in vivo; details: Escherichia coli, 67, iv, 168 h; ICR mice, intraperitoneal infection, compound intravenously 1 hour after infection, survival at 1 week
Method: as §2

[10] = test system: Pseudomonas aeruginosa IF03445; assay: Protection ability against systemic infection; type: in vivo; details: IF03445, iv, 168 h, ICR mice, intraperitoneal infection, compound intravenously 1 hour after infection, survival at 1 week
Method: as §2

| Structure (SMILES) | MIC (Escherichia coli 67 [1]) [µg/mL] | MIC [2] [µg/mL] | MIC (Proteus morganii IF03848) [µg/mL] | MIC [3] [µg/mL] | MIC [4] [µg/mL] | MIC [5] [µg/mL] | ED50 [6] [mg/kg] | ED50 [7] [mg/kg] | LD50 [8] [mg/kg] | ED50 (Escherichia coli 67 [9]) [mg/kg] | ED50 [10] [mg/kg] |
| --- | --- | --- | --- | --- | --- | --- | --- | --- | --- | --- | --- |
| Cc1cc(SCC2=C(C(=O)O)N3C(=O)[C@@H](NC(=O)/C(=N\O)c4csc(N)n4)[C@H]3SC2)n2nc(C(=O)O)nc2n1 [Compound 8, (6R,7R)-7-[2-(2-amino-4-thiazolyl)-2-(Z-hydroxyimino)acetamido]3-[(2-carboxy-5-methyl-s-triazolo[1,5-a]pyrimidin-7-yl)thiomethyl]-8-oxo-5-thia-1-azabicyclo[4.2.0]oct-2-ene-2-carboxylic acid] | 0.2 (≈ 0.338 µM) | < 0.05 | 0.39 (≈ 0.659 µM) | > 100 | 0.2 (≈ 0.338 µM) | 0.78 (≈ 1.32 µM) | 7.68 | 3.55 | > 1000 |  |  |
| Cc1nnc(SCC2=C(C(=O)O)N3C(=O)[C@@H](NC(=O)Cn4cnnn4)[C@H]3SC2)s1 [CEZ, reference compound] |  |  |  |  |  |  |  | 74 |  |  |  |
| CO/N=C(\C(=O)N[C@@H]1C(=O)N2C(C(=O)O)=C(CSc3cc(C)nc4ncnn34)CS[C@H]12)c1csc(N)n1 [Compound 1, (6R,7R)-7-[2-(2-amino-4-thiazolyl)-2-(Z-methoxyimino)acetamido]-3-[(5-methyl-s-triazolo[1,5-a]pyrimidin-7-yl)thiomethyl]-8-oxo-5-thia-1-azabicyclo[4.2.0] oct-2-ene-2-carboxylic acid] | < 0.05 | < 0.05 | 0.78 (≈ 1.39 µM) | 50 (≈ 89 µM) | 0.2 (≈ 0.356 µM) | 1.57 (≈ 2.8 µM) | 0.1 |  | > 1000 | 0.7 | 780 |
| CO/N=C(\C(=O)N[C@@H]1C(=O)N2C(C(=O)O)=C(CSc3cc(C)nc4nc(C(=O)O)nn34)CS[C@H]12)c1csc(N)n1 [Compound 2, (6R,7R)-7-[2-(2-amino-4-thiazolyl)-2-(Z-methoxyimino)acetamido]-3-[(2-carboxy-5-methyl-s-triazolo[1,5-a]pyrimidin-7-yl)thiomethyl]-8-oxo-5-thia-1-azabicyclo[4.2.0]oct-2-ene-2-carboxylic acid] | < 0.05 | < 0.05 | 0.2 (≈ 0.33 µM) | 12.5 (≈ 20.6 µM) | < 0.05 | 1.57 (≈ 2.59 µM) | 0.1 |  | > 1000 | 0.8 | 360 |
| Cc1cc(SCC2=C(C(=O)O)N3C(=O)[C@@H](NC(=O)/C(=N\OC(=O)c4cccs4)c4csc(N)n4)[C@H]3SC2)n2nc(C(=O)O)nc2n1 [Compound 10, (6R,7R)-7-[2-(2-amino-4-thiazolyl)-2-[Z-(2-thiophenecarbonyl)oxyimino]acetamido]-3-[(2-carboxy-5-methyl-s-triazolo[1,5-a]pyrimidin-7-yl)-thiomethyl]-8-oxo-5-thia-1-azabicyclo[4.2.0]-oct-2-ene-2-carboxylic acid] | 0.1 (≈ 0.143 µM) | < 0.05 | 0.39 (≈ 0.556 µM) | 50 (≈ 71.3 µM) | 0.1 (≈ 0.143 µM) | 0.39 (≈ 0.556 µM) |  | 8.01 | > 1000 |  |  |
| CO/N=C(\C(=O)N[C@@H]1C(=O)N2C(C(=O)O)=C(CSc3c(C(=O)O)cnc4nc(C(=O)O)nn34)CS[C@H]12)c1csc(N)n1 [Compound 7, (6R,7R)-7-[2-(2-amino-4-thiazolyl)-2-(Z-methoxyimino)acetamido]-3-[(2,6-dicarboxy-s-triazolo[1,5-a]pyrimidin-7-yl)thiomethyl]-8-oxo-5-thia-1-azabicyclo[4.2.0]oct-2-ene-2-carboxylic acid] | < 0.05 | < 0.05 | 0.39 (≈ 0.614 µM) | > 100 | 0.39 (≈ 0.614 µM) | 12.5 (≈ 19.7 µM) |  |  |  |  |  |
| CO/N=C(\C(=O)N[C@@H]1C(=O)N2C(C(=O)O)=C(CSc3nc4ncc(C(=O)O)c(O)n4n3)CS[C@H]12)c1csc(N)n1 [Compound 19, (6R,7R)-7-[2-(2-amino-4-thiazolyl)-2-(Z-methoxyimino)acetamido]-3-[(6-carboxy-7-hydroxy-s-triazolo[1,5-a]pyrimidin-2-yl)thiomethyl]-8-oxo-5-thia-1-azabicyclo[4.2.0]oct-2-ene-2-carboxylic acid] | < 0.05 | < 0.05 | 0.2 (≈ 0.329 µM) | 6.25 (≈ 10.3 µM) | < 0.05 | 6.25 (≈ 10.3 µM) |  |  |  |  |  |
| CC(=O)Oc1cc(C(=O)O/N=C(\C(=O)N[C@@H]2C(=O)N3C(C(=O)O)=C(CSc4cc(C)nc5nc(C(=O)O)nn45)CS[C@H]23)c2csc(N)n2)cc(OC(C)=O)c1OC(C)=O [Compound 13] | 0.05 (≈ 0.0575 µM) | < 0.05 | 0.2 (≈ 0.23 µM) | 1.57 (≈ 1.8 µM) | < 0.05 | 0.78 (≈ 0.897 µM) |  |  |  |  |  |
| Cc1cc(SCC2=C(C(=O)O)N3C(=O)[C@@H](NC(=O)/C(=N\OC(=O)c4cccnc4)c4csc(N)n4)[C@H]3SC2)n2nc(C(=O)O)nc2n1 [Compound 11, (6R,7R)-7-[2-(2-amino-4-thiazolyl)-2-[Z-(3-pyridinecarbonyl)oxyimino]acetamido]-3-[(2-carboxy-5-methyl-s-trizolo[1,5-a]pyrimidin-7-yl)thiomethyl]-8-oxo-5-thia-1-azabicyclo[4.2.0]oct-2-ene-2-carboxylic acid] | < 0.05 | < 0.05 | 0.1 (≈ 0.144 µM) | > 100 | < 0.05 | 0.39 (≈ 0.56 µM) |  |  |  |  |  |
| Cc1cc(SCC2=C(C(=O)O)N3C(=O)[C@@H](NC(=O)/C(=N\OC(=O)c4ccco4)c4csc(N)n4)[C@H]3SC2)n2nc(C(=O)O)nc2n1 [Compound 9, (6R,7R)-7-[2-(2-amino-4-thiazolyl)-2-[Z-(2-furancarbonyl)oxyimino]acetamido]-3-[(2-carboxy-5-methyl-s-triazolo[1,5-a]pyrimidin-7-yl)thiomethyl]-8-oxo-5-thia-1-azabicyclo[4.2.0]oct-2-ene-2-carboxylic acid] | < 0.05 | < 0.05 | 0.2 (≈ 0.292 µM) | 100 (≈ 146 µM) | < 0.05 | 0.39 (≈ 0.569 µM) | 7.68 | 2.11 | > 1000 |  |  |
| CO/N=C(\C(=O)N[C@@H]1C(=O)N2C(C(=O)O)=C(CSc3cc(C(=O)O)nc4ncnn34)CS[C@H]12)c1csc(N)n1 [Compound 6, (6R,7R)-7-[2-(2-amino-4-thiazolyl)-2-(Z-methoxyimino)acetamido]-3-[(5-carboxy-s-triazolo[1,5-a]pyrimidin-7-yl)thiomethyl]-8-oxo-5-thia-1-azabicyclo [4.2.0]oct-2-ene-2-carboxylic acid] | < 0.05 | < 0.05 | 0.2 (≈ 0.338 µM) | 6.25 (≈ 10.6 µM) | 0.2 (≈ 0.338 µM) | 1.57 (≈ 2.65 µM) | 0.1 |  | > 1000 | 0.8 | 230 |
